# Where two headings read alike, the source gives them in different places.
# What was measured:
# Format in all cases: binding, sheep
# Antibody to Immunogen I = conditions: Cross-reactants at 100 ng/ml, Antibody to Immunogen I
# Description: (§1) An aqueous solution of each immunogen was formulated with Freund's Complete Adjuvant (FCA) to form an emulsion consisting of 2mg/ml* immunogen in 50% (v/v) FCA. Three sheep were immunised with this emulsion (1° immunisation), 0.25ml being intramuscularly injected at each of four sites in the flank of each animal. Subsequent immunizations (boosts) contained 1mg/ml* immunogen. All boosts were emulsified in 50% (v/v) Freund's Incomplete Adjuvant (FIA) and were administered in the same manner as the 1° immunisation, at monthly intervals. Blood sampling took place 7 to 14 days after each boost. *The general procedure for immunogen administration is outlined above, however, it was necessary to deviate from this protocol in some cases, due to reduced immunogen concentrations (Immunogens II, IV, VII and VIII) and/or amount available (Immunogen VIII). Any deviations from the protocol described are outlined in Table 1A below and highlighted in bold. Table 1A: Amount and volume of immunogens administered for primary and subsequent boosts
# (§2) The wells of an enhanced binding 96 well polystyrene microtiter plate were coated with IgG fraction of antiserum raised to Immunogen I or II, diluted in 10mM Tris, pH8.5 (125µl/well). The appropriate antibody coating dilution was determined using standard ELISA checkerboard techniques. The plate was incubated overnight at 4°C, washed 4 times over 10 minutes with Tris buffered saline containing Tween 20 (TBST) and tapped dry. Standard solutions (JWH-018 for Immunogens I and II) were applied at 0, 0.625, 1.25, 2.5, 5, 10, 20 and 40ng/ml and 50µl of each was added to the appropriate wells. 75µl of conjugate (appropriate hapten-HRP) diluted in Tris buffer (pH 7.2) containing EDTA, D-mannitol, sucrose, thimerosal and BSA, was added to each of the wells. The appropriate dilution of conjugate was also determined using standard ELISA checkerboard techniques. The plate was incubated at 25°C for 1 hour. Excess unbound conjugate was removed by washing 6 times over a 10 minute period with TBST. 125µl of tetramethylbenzidine (TMB) substrate solution was added to each well of the plate that was then incubated for 20 minutes in the dark at room temperature. The reaction was terminated by addition of 125µl 0.2M H2SO4 to each well. The absorbance was then measured at 450nm using a microtiter plate reader. The data are inputted to a computer program called 'KC Junior'. It is a 4 parameter fit curve and allow the calculatation of concentrations between the standard runs. This program is used to calculate the IC50s by dividing the 0ng/ml OD value by 2 and obtaining the concentration value from the curve for this OD.
# In a similar manner to that described above, the wells of a 96-well microtiter plate were coated with the IgG fraction of the antiserum raised to Immunogens I or II. Standard solutions (JWH-018 for Immunogen I and II) were applied at 0, 0.625, 1.25, 2.5, 5, 10, 20 and 40ng/ml and conjugate was employed as detection reagent.
# (§3) The data set our in Tables 3 and 4 are generated using antibodies raised against the indicated Immunogens in a competitive binding assay with the indicated tracers, using the indicated standards: Table 2
# (§4) A450 = absorbance at 450nm B = absorbance at 450nm at xng/ml standard concentration B0 = absorbance at 450nm at 0ng/ml standard concentration IC50 = standard concentration which produces 50% B/B0
# (§5) In order to determine the specificity of the competitive ELISAs, standard solutions of a range of structurally similar synthetic cannabinoids and their metabolites were prepared in TBST. Using the calibration curves generated and employing a single level of cross reactants, these were used to determine the cross-reactivity of each immunoassay with these substances. […]
# Antibody to Immunogen II = assay: Competitive ELISA (Example 36), antibody RS1833B12, tracer ESC4555/LK959, standard JWH-018; conditions: Cross-reactants at 100 ng/ml; Antibody to Immunogen II
# Description: as §1
# as §2, with “The” for “The wells of an enhanced binding 96 well polystyrene microtiter plate were coated with IgG fraction of antiserum raised to Immunogen I or II, diluted in 10mM Tris, pH8.5 (125µl/well). The”, “Standard solutions (JWH-018 for Immunogens I and II) were applied at 0, 0.625, 1.25, 2.5, 5, 10, 20 and 40ng/ml and 50µl of each was added to the appropriate wells.” left out, “runs.” for “runs. This program is used to calculate the IC50s by dividing the 0ng/ml OD value by 2 and obtaining the concentration value from the curve for this OD.”
# In a similar manner to that described above, the wells of a 96-well microtiter plate were coated with the IgG fraction of the antiserum raised to Immunogens I or II.
# as §3
# Using the calibration curves generated and employing a single level of cross reactants, these were used to determine the cross-reactivity of each immunoassay with these substances. These are the standards used for the IC50 and cross-reactivity data generation • Immunogen I - JWH-018 • Immunogen II - JWH-018 • Immunogen IV - JWH-018 • Immunogen VII - JWH-015 • Immunogen VIII - JWH-018 Table 4: Cross reactivity of the competitive ELISAs for synthetic cannabinoids and their metabolites
# Antibody to Immunogen IV = conditions: Cross-reactants at 100 ng/ml, Antibody to Immunogen IV
# Description: as §1, §2
# (§6) In a similar manner to that described above, the wells of a 96-well microtiter plate were coated with the IgG fraction of the antiserum raised to Immunogens IV, VII or VIII. Standard solutions (JWH-018 for Immunogens IV and VIII, JWH-015 for Immunogen VII) were prepared in TBST at 0, 1.25, 2.5, 5, 10, 20, 40 and 80ng/ml and conjugate was employed as detection reagent.
# as §3, §4, §5
# [1] = tested on: Antibody to Immunogen VIII; conditions: Cross-reactants at 100 ng/ml, Antibody to Immunogen VIII
# Description: as §1, §2, §6, §3, §4, §5
# [2] = tested on: Antibody to Immunogen VII; conditions: Cross-reactants at 100 ng/ml, Antibody to Immunogen VII
# Description: as §1, §2, §6, §3, §4, §5
# [3] = listed as YWH-081 7-methoxynaphthyl isomer (JWH-164)
Compound,%B/B0 (Antibody to Immunogen I) [%],%B/B0 (Antibody to Immunogen II) [%],%B/B0 (Antibody to Immunogen IV) [%],%B/B0 [1] [%],%B/B0 [2] [%],%B/B0 (Antibody to Immunogen I; [3]) [%],%B/B0 (Antibody to Immunogen IV; [3]) [%],"%B/B0 [1, 3] [%]","%B/B0 [2, 3] [%]"
CCCCn1cc(C(=O)c2cccc3ccccc23)c2ccc(O)cc21 [JWH-073 6-hydroxyindole metabolite],5.93,28.03,74.89,93.52,61.83,–,–,–,–
CCCCCn1cc(C(=O)Cc2ccccc2OC)c2ccccc21 [JWH-250],78.94,–,41.08,9.40,97.23,–,–,–,–
O=C(c1ccc2ccccc2c1)c1cn(CCN2CCOCC2)c2ccccc12 [JWH-200 2'-naphthyl isomer],28.57,–,92.29,96.12,94.65,–,–,–,–
COc1ccccc1CC(=O)c1cn(CCCCCC(=O)O)c2ccccc12 [JWH 250 N-(5-carboxypentyl) metabolite],86.21,–,89.88,89.30,97.60,–,–,–,–
CCCCCn1c(O)c(C(=O)c2cccc3ccccc23)c2ccccc21 [JWH-018 2-hydroxyindole metabolite],95.37,–,100.14,101.36,95.08,–,–,–,–
CCCCCCn1cc(C(=O)c2cccc3ccccc23)cc1-c1ccccc1 [JWH-147],83.85,–,97.00,92.32,99.32,–,–,–,–
CCc1ccc(C(=O)c2cn(CCCCCC(=O)O)c3ccccc23)c2ccccc12 [JWH-210 N-(5-carboxypentyl) metabolite],76.77,–,85.29,96.27,96.07,–,–,–,–
"(+)-CP 55,940",103.25,–,91.38,95.12,97.15,–,–,–,–
"CCCCCCC(C)(C)C1=CC(=O)C([C@@H]2CCC[C@H](O)C2)=CC1=O [CP-47,497-para-quinone analogue]",100.26,–,97.33,88.11,93.29,–,–,–,–
CN1CCCCC1Cn1cc(C(=O)c2cc([N+](=O)[O-])ccc2I)c2ccccc21 (centres unmarked) [AM-1241],85.61,–,91.38,102.46,94.96,–,–,–,–
"(-)-CP 55,940",98.27,–,93.02,97.58,101.15,–,–,–,–
COc1ccc(C(=O)c2cn(CCCCCO)c3ccccc23)cc1 [RCS-4 N-(5-hydroxypentyl) metabolite],59.51,–,61.03,19.13,94.55,–,–,–,–
CCCCCn1cc(C(=O)c2ccc(CC)c3ccccc23)c2cc(O)ccc21 [JWH-210 5-hydroxyindole metabolite],83.29,–,48.91,87.72,100.43,–,–,–,–
"CCCCCCCC(C)(C)c1ccc([C@H]2CCC[C@@H](O)C2)c(O)c1 [CP-49,497-C8-homologue]",101.11,–,94.66,104.88,98.55,–,–,–,–
COc1ccc(C(=O)c2cn(CCCCCO)c3ccccc23)c2ccccc12 [JWH-081 N-(5-hydroxypentyl) metabolite],61.86,–,26.31,47.16,89.31,–,–,–,–
COc1ccc(CC(=O)c2cn(CCC3CCCCC3)c3ccccc23)cc1 [RCS-8 4-methoxy isomer],94.94,–,90.78,100.72,98.21,–,–,–,–
"CCCCCn1cc(C(=O)c2cccc3ccc(OC)cc23)c2ccccc21 [JWH-164 (JWH-081 7-methoxynaphthyl isomer), JWH-081 7-methoxynaphthyl isomer]",91.86,–,36.14,57.93,96.13,88.26,39.20,59.51,97.60
COc1ccc(C(=O)c2cn(CCCC(C)O)c3ccccc23)cc1 (centres unmarked) [RCS-4 N-(4-hydroxypentyl) metabolite],65.71,–,59.16,8.89,95.72,–,–,–,–
"COc1ccccc1CC(=O)c1cn(CCC2CCCCC2)c2ccccc12 [RCS-8 (SR-18), RCS-8]",82.65,–,85.50,88.79,94.57,–,–,–,–
"CCCCCn1cc(C(=O)Cc2ccc(Cl)cc2)c2ccccc21 [JWH-206 (JWH-203 4-chloro isomer), JWH-203 4-chloro isomer]",75.96,–,65.63,10.55,97.17,–,–,–,–
CCCCCn1cc(C(=O)Cc2ccccc2Cl)c2ccccc21 [JWH-203],72.55,–,52.15,9.19,99.08,–,–,–,–
CCCCCn1cc(C(=O)c2ccc(CC)c3ccccc23)c2ccccc21 [JWH-210],91.18,–,5.53,16.87,96.62,–,–,–,–
CCCCCn1cc(C(=O)c2cccc(OC)c2)c2ccccc21 [RCS-4 3-methoxy isomer],31.19,–,25.65,10.95,94.72,–,–,–,–
CCCCCn1cc(C(=O)c2ccc(OC)c3ccccc23)c2ccccc21 [JWH-081],62.13,–,3.78,15.88,86.72,–,–,–,–

# Reference: EP2698385A1, “Detection of synthetic cannabinoids” (priority 2012, dated 2014)
